# Source: US20260097083A1, “METHOD FOR PRODUCING PANCREATIC ENDODERM CELLS” (Kyoto University, priority 2022, published 2026)
# How the values were obtained:
# Type in all cases: cell-based
# [1] = tested on: NKX6.1-positive pancreatic endoderm cells derived from human iPS cells; experiment: Screening of senescence-related reagents
# Protocol: FIG. 2-A A schematic diagram illustrating senescence-related reagent screening. […] After the elapse of one week, the cells were counted under a fluorescence microscope. Cells were differentiated to a pancreatic endoderm cell level using a stepwise differentiation-inducing method, and were then re-seeded on a 24-well plate at 2×10^5/well. The following culture media were added to these cultured cells, and the cells were cultured for 1 week. […] After fixed using 4% PFA, the cells were subjected to β-gal staining and NKX6.1 antibody immunostaining, and fluorescently stained images were acquired using BZ-800 (Keyence). The number of NKX6.1-positive cells, the NKX6.1-positive ratio, and the β-gal-positive ratio were calculated using the BZ-[…]/Macro Cell Count function of that microscope. FIGS. 2-A and 3-A show the outline of this procedure. A reagent enabling proliferation of pancreatic endoderm cells derived from human iPS cells was searched for in the senescence-related reagents. […] Then, (1) the number of NKX6.1-positive cells, or (2) the ratio of NKX6.1-positive cells and the ratio of β gal-positive cells were measured after the culture. FIGS. 2-B to 2-D show the results.
# [2] = tested on: PDX1+/NKX6.1+ pancreatic endoderm cells; experiment: Expansion culture with Y-27632 at different concentrations; details: 40 days, FIG. 5-A
# Protocol: FIG. 5-A Changes in the number of PDX1^+/NKX6.1^+ pancreatic endoderm cells and the total number of cells during expansion culture with Y-27632 (0, 10, or 50 μM). (1) After the cells produced in clause 1 above were washed with PBS(−), 1 ml of 0.25% trypsin-EDTA was added thereto, and the cells were incubated at 37° C. and 5% CO2 for 5 minutes. (2) The adherent cells were detached through pipetting and were added to a 50-ml centrifuge tube. (3) 4 ml of DMEM (Dulbecco's Modified Eagle Medium)/10% FBS/PS (penicillin-streptomycin) was added to the centrifuge tube. (4) The resulting mixture was centrifuged at 400 G for 3 minutes, and the supernatant was removed. (5) The cells were suspended in improved MEM (containing 10 μM Y-27632, 0.5×B-27 Supplement, and 100 U/ml penicillin/streptomycin), and were counted. (6) When the cells were seeded on a 6-well plate, an amount of the suspension necessary to provide 1×10^6 cells/well was collected and was centrifuged at 400 G for 3 minutes (2×10^5 cells/well for a 24-well plate). (7) After the supernatant was removed, the cells were re-suspended in improved MEM (containing 100 ng/ml KGF, 50 ng/ml EGF, 10 mM nicotinamide, 50 μM Y-27632, 0.5×B-27 Supplement, and 100 U/ml penicillin/streptomycin), the suspension was adjusted to correspond to 2 ml/well, and then the cells were seeded. A 6-well plate to which the cells were to be seeded had been coated in advance by adding a solution formed by mixing 10 μl of iMatrix-511 silk and 1.5 ml of PBS(−) to each well 1 hour before seeding, and incubating the plate at 37° C. and 5% CO2 for 1 hour. (8) On the next day (Day 1), the cells were washed with improved MEM, and then the culture medium was changed to improved MEM (5 ml/well) containing 100 ng/ml KGF, 50 ng/ml EGF, 10 mM nicotinamide, 50 μM Y-27632, 0.5×B-27 Supplement, and 100 U/ml penicillin/streptomycin. (9) The cells were washed with improved MEM 3 days after that (on Day 4), and then the culture medium was changed to the same culture medium as that in the step (7) (5 ml/well). (10) The steps (1) to (7) above were conducted 3 days after that (on Day 7), and the next passage (expansion culture) was conducted. Expansion culture and passage culture were repeated by repeating the steps (8), (9), and (10) from the next day. One round of the passage (expansion culture) corresponded to 7 days (operations above). FIGS. 4-A show the outline of this procedure. […]
# [3] = tested on: pancreatic endoderm cells after expansion culture; experiment: Induction of differentiation into β-like cells after expansion culture
# Protocol: After the expansion culture, the differentiation into β-like cells was induced using the method by Kimura et al. (Non Patent Literature 1) with a portion thereof being modified. Briefly, pancreatic endoderm cells were detached from a 6-well plate using trypsin, and were then suspended in the S4 culture medium at 3×10^5 cells/ml. The cells were seeded on a V-bottomed 96-well plate at 3×10^4 cells/100 μl/well. […] The induction of differentiation of pancreatic endoderm cells that had been repeatedly passaged 5 times using the expansion culture method with “Y-27632+DMSO” or “Y-27632+ALK5i+RA” into β-like cells was promoted. Then, the efficiency of induction into β-like cells was compared with that of a cell cluster obtained by inducing pancreatic endoderm cells that had not been passaged into B-like cells.
smiles,measurement,setting,value
C[C@@H](N)[C@H]1CC[C@H](C(=O)Nc2ccncc2)CC1 [Y-27632],ratio of the pancreatic endoderm cells (NKX6.1-positive),"[1]; 50 μM, 1 week, FIG. 2-C",most effective
same,ratio of β gal-positive cells (senescent cells),"[1]; 1 week, FIG. 2-D",exhibited an effect of reducing the ratio of β gal-positive cells
same,concentration most suitable for the proliferation,[1]; FIG. 2-B,50 µM
same,number of NKX6.1-positive cells (pancreatic endoderm cells),"[1]; culture for 1 week, 24-well plate, FIG. 2-B",significantly increased
same,number of PDX1+/NKX6.1+ pancreatic endoderm cells increased by a factor of,[2]; Y-27632 10 μM,about 1×10^4
same,total number of cells increased by a factor of,[2]; Y-27632 10 μM,about 1×10^4
same,number of PDX1+/NKX6.1+ pancreatic endoderm cells increased by a factor of,[2]; Y-27632 50 μM,about 1×10^4
same,total number of cells increased by a factor of,[2]; Y-27632 50 μM,about 1×10^4
same,potential to differentiate into β-like cells,"[3]; after 2 rounds of expansion culture with Y-27632 50 μM, FIG. 4-G",had a potential to differentiate
same,efficiency of induction to β-like cells on repeated expansion culture,[3]; culture medium for expansion culture with Y-27632,tended to gradually decrease
